Data: patent US20240182465A1 (GENFLEET THERAPEUTICS (SHANGHAI) INC., priority 2021, published 2024)

Legend:
HPK1 [1] = target: T1, HPK1 (Homo sapiens, UniProt Q92918); assay: HPK1 kinase activity assay (ADP-Glo); conditions: HPK1 Kinase activity IC50 (nM), 1 nM HPK1, 10 μM ATP, 0.1 μg/μL MBP
T1 sequence (Q92918 1-346 limits assumed): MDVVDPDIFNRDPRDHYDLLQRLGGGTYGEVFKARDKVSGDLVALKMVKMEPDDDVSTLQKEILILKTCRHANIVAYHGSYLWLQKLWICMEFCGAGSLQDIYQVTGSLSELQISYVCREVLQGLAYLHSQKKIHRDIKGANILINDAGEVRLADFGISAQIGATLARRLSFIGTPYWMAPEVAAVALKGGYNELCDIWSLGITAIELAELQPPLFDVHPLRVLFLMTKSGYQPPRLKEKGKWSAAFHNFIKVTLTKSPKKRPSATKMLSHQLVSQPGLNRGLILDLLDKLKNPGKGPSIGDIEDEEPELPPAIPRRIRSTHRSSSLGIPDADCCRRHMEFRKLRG
Description: Preparation of buffer: 1× reaction buffer (40 mM Tris-HCl, 20 mM MgCl2, 0.01% Brij35, 50 μM DTT, 0.1 mg/ml BSA) was prepared using sterile water, which was prepared and used on the day of the experiment.
(§1) Preparation of 1000× drug stock plate: a 1000× compound stock plate was prepared. […] The compound stock plate was sealed with a sealing film and stored in a −20° C. refrigerator for later use.
Compound preparation and dosing: the 1000× drug stock plate was taken and melted at room temperature in the dark. Then 5× drug intermediate plate was prepared using reaction buffer and mixed well. 2 μL was transferred from the 5× drug intermediate plate into a 384-well plate, and negative control well and positive control well (in which 2 μL reaction buffer containing 0.5% DMSO was added) were set. Each point was repeated twice.
Preparation and incubation of reaction mixture: HPK1 protein was diluted to a 2.5× working solution with reaction buffer. 4 μL 2.5×HPK1 protein was added to each well containing test compound and positive control well, and 4 μL of reaction buffer without HPK1 protein was added to the negative control well. The obtained mixture was centrifuged at 1000 rpm for 1 min and then incubated in a 20° C. incubator for 15 min. A 2.5× mixed working solution of MBP protein and ATP was prepared with reaction buffer at concentrations of 0.5 μg/μL and 50 PM, respectively. 4 μL of the mixed working solution of MBP and ATP was added to each well, centrifuged at 1000 rpm for 1 min, and then incubated in a 20° C. incubator for 90 min.
ADP-Glo detection and reading plate: 10 μl ADP-Glo was added to each well of the test plate. The resulting mixture was centrifuged at 1000 rpm for 1 min and incubated in a 20° C. incubator for 60 min. Then 10 μL of the final incubation solution was transferred from the test plate to a new 384-well plate. 10 μL of kinase detection reagent was added to each well, centrifuged at 400 g for 1 min, and incubated in a 20° C. incubator for 60 min. Chemiluminescent signals were read by a microplate reader.

HPK1 [2] = target: HPK1 (Homo sapiens, UniProt Q92918); assay: SLP76 phosphorylation assay (intracellular HPK1 inhibitory activity, p-SLP76 Ser376 sandwich ELISA); conditions: p-SLP76 IC50(nM), Jurkat, Clone E6-1 cells; 1 h compound pre-incubation, anti-CD3 beads stimulation 20 min; SLP76 phosphorylation at S376
Target sequence in this assay (Q92918 whole entry): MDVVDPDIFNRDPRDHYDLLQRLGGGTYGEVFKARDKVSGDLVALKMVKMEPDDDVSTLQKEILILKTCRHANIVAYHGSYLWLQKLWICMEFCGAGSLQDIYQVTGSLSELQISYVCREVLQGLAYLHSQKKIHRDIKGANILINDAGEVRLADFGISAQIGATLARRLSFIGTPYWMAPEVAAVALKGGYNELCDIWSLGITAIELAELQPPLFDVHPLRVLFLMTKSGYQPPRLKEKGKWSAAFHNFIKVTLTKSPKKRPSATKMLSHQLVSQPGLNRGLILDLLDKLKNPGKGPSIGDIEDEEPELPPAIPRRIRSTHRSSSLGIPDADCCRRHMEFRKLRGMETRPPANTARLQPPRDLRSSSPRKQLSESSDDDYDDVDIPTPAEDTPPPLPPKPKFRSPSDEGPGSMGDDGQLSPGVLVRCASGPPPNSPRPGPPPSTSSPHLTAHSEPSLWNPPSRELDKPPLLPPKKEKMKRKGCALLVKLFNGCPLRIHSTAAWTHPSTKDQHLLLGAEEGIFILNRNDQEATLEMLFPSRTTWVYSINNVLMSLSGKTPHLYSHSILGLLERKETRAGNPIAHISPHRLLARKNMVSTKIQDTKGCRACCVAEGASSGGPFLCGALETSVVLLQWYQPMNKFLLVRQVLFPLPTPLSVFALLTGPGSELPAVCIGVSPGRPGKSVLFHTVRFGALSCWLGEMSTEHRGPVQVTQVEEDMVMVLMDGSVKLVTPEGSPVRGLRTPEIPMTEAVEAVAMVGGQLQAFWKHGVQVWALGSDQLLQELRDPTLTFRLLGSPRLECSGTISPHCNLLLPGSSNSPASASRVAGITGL
Description: Intracellular HPK1 inhibitory activity was tested by the detection of SLP76 phosphorylation at S376.
as §1
Preparation of Beads wash buffer: 0.1 mL FBS and 0.4 mL 0.5 M EDTA (with a final concentration of 2 mM) were added to 100 mL PBS and stored in a 4° C. refrigerator for later use.
100× Protease Inhibitor Cocktail in 1/20 total volume was added and stored on wet ice for later use. The buffer was ready to use.
Cell inoculation and dosing: the 1000× drug stock plate was taken and melted at room temperature in the dark. […] Jurkat cells in the logarithmic growth phase were selected and collected. […] The cells were inoculated into a 96-well plate (the volume was 90 μL per well), and a blank control well (without cells inoculation, and in which 110 μL of medium was added) was set. 10 μL of a drug-containing culture medium (10×) was transferred from the 10× drug intermediate plate into the 96-well cell plate (with a final concentration of 0.1% DMSO), and set a DMSO control group (in which 0.1% DMSO was added to the treated cells), a stimulated control group (in which 10 μL of culture medium was added to treat cells) and an unstimulated group (in which 10 μL of culture medium was added to treat cells). The wells were duplicated, gently patted, mixed, and then placed into a 5% CO2 incubator at 37° C. for 1 h.
Anti-CD3 beads stimulation: Dynabeads anti-human CD3 was taken, shaken, and mixed for 60 s. The required volume of beads was pipetted, and an equal volume or at least 1 mL of washing solution was added to wash once. Fresh complete medium was then added to resuspend and adjust the density of the beads to 4×10^7/mL, and the beads were placed on ice for later use. At the end of drug pre-incubation, the cell culture plate was taken out. 10 μL Dynabeads anti-human CD3 was added to each well to treat the cells, and 10 μL the culture medium was added to the unstimulated group. The cell culture plate was shaken to mix well at 2500 rpm for 10 s, and then placed into a 5% CO2 incubator at 37° C. and continued to culture for 20 min.
Detection of p-SLP76 protein level. PathScan Phospho-SLP-76 (Ser376) Sandwich ELISA Kit was applied to detect p-SLP76 protein level. At the end of the Anti-CD3 beads stimulation, the cell culture plate was removed from the incubator. […] After lysis, the cell culture plate was centrifuged at 4° C., 400×g for 5 min. 25 μL of sample and 75 μL of sample diluent were added to each well, and the plate was placed in a 5% CO2 incubator at 37° C. for 2 h. The subsequent detection steps were carried out following the kit instructions, and the absorbance (OD value) of each well was read at 450 nm by a microplate reader.

Row | IC50 (HPK1 [1]) [nM] | IC50 (HPK1 [2]) [nM] | SMILES
1 | 0.28 | 62.1 | Cc1c[nH]c2ncc(-c3cc4c(c([C@@H]5CCCN5)c3)CN(C(=O)N3CCOCC3)CC4)cc12 [Compound Z356, (S)-(6-(3-methyl-1H-pyrrolo[2,3-b]pyridin-5-yl)-8-(pyrrolidin-2-yl)-3,4-dihydroisoquinolin-2(1H)-yl) (morpholino)methanone]
2 | 0.41 | 108 | Cc1c[nH]c2ncc(-c3cc4c(c([C@@H]5CCCN5)c3)CN(C(=O)C(C)(C)O)CC4)cc12 [Compound Z216, (S)-2-hydroxy-2-methyl-1-(6-(3-methyl-11H-pyrrolo[2,3-b]pyridin-5-yl)-8-(pyrrolidin-2-yl)-3,4-dihydroisoquinolin-2(1H)-yl)propan-1-one]
3 | 0.42 | 193 | Cc1c[nH]c2ncc(-c3cc4c(c([C@@H]5CCCN5)c3)CN(C(=O)NC3CC3)CC4)cc12 [Compound Z250, (S)—N-cyclopropyl-6-(3-methyl-1H-pyrrolo[2,3-b]pyridin-5-yl)-8-(pyrrolidin-2-yl)-3,4-dihydroisoquinoline-2(1H)-carboxamide]
4 | 1.2 | 454 | Cc1c[nH]c2ncc(-c3cc4c(c([C@@H]5CCCN5)c3)CCN(CC3CCOCC3)C4)cc12 [Compound Z402, 7-(3-methyl-1H-pyrrolo[2,3-h]pyridin-5-yl)-2-(3,4,5,6-tetrahydro-2H-pyran-4-ylmethyl)-5-[(2S)-tetrahydro-1H-pyrrol-2-yl]-1,2,3,4-tetrahydroisoquinoline]

Row | SMILES | IC50 (HPK1 [1]) [nM] | IC50 (HPK1 [2]) [nM]
5 | Cc1c[nH]c2ncc(-c3cc4c(c([C@@H]5CCCN5)c3)CN(C(=O)c3cnn(C)c3)CC4)cc12 [Compound Z224, (S)-(1-methyl-1H-pyrazol-4-yl)(6-(3-methyl-1H-pyrrolo[2,3-b]pyridin-5-yl)-8-(pyrrolidin-2-yl)-3,4-dihydroisoquinolin-2(1H)-yl)methanone] | 1.11 | 333
